Among the data in patent EP1641803B1, “THIENOPYRIMIDINE DERIVATIVES AS POTASSIUM CHANNEL INHIBITORS” (Xention Limited, priority 2003, dated 2004) are inhibition and IC50 values, retold here.

Test [1] concerns the target hKv1.5 (Homo sapiens, UniProt P22460). As to the kind of experiment: Kv1.5 Autopatch Electrophysiology (whole cell patch-clamp). It counts as cell-based. The note with it: compound at 1µM, room temperature (22-24°C), held at -80mV, step to 0mV for 1000ms, total charge measured. An outline of the steps: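 Whole-cell automated patch-clamp at 22-24°C, compounds tested at 1µM in external bather (KCl/K-gluconate, pH 7.4; KCl/EGTA pipette). Cells held at -80mV and stepped to 0mV for 1000ms every 5s; only cells with IK > 500 pA and Rseries ≤18 MΩ used. Read-out: total charge over the whole step.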
A general note: In patch-clamp work, channel activity is measured electrically.

Test [2] concerns the target T1, human Kv1.5 (Homo sapiens, UniProt P22460).
T1 construct: expressed in transfected cells
As to the kind of experiment: Kv1.5 Rb+ Efflux Assay. It counts as cell-based. The conditions noted are these: inhibition of 86Rb+ efflux through Kv1.5; cells stably transfected with human Kv1.5; 10 point concentration response curves n=2; normalised to 2.5mM 4 amino-pyridine block. In a few lines:
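Cells stably expressing human Kv1.5 loaded with ⁸⁶Rb⁺ ≥3 h, preincubated 10 min at room temperature with compound, then depolarised with high-KCl (145mM) buffer for 10 min; effluxed ⁸⁶Rb⁺ counted by Cerenkov emission (alternatively ⁸⁵Rb⁺ by atomic absorption). Inhibition normalised to 2.5mM 4-aminopyridine block; IC50 from 10-point curves, n=2, variable-slope sigmoidal fit.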

In general, inhibition refers to the percentage by which the read-out fell short of the control. Broadly, the IC50 is the midpoint of a concentration-inhibition curve.

T1 sequence (P22460 whole entry): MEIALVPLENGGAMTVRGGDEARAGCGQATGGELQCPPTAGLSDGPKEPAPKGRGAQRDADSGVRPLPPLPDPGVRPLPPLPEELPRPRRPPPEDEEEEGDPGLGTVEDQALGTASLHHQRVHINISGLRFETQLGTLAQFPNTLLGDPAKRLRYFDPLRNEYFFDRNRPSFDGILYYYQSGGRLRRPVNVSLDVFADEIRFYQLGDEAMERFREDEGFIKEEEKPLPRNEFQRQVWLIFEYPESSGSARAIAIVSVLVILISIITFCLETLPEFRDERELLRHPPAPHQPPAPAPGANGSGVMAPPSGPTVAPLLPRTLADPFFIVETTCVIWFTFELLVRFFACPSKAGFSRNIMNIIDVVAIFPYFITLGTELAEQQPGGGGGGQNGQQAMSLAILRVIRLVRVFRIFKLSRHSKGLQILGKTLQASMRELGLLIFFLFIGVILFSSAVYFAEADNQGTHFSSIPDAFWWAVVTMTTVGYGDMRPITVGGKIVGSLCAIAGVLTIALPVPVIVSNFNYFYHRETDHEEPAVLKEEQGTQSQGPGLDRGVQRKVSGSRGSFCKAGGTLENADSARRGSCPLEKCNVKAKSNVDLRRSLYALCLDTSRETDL
hKv1.5, sequence (P22460 whole entry): as above

The compound `Clc1nc(NCc2ccccn2)c2c(-c3ccccc3)csc2n1` [Example 181, (2-Chloro-5-phenyl-thieno[2,3-d]pyrimidin-4-yl)-pyridin-2-ylmethyl-amine] came in with an inhibition at 1 µM in test [1] of 96%. In test [2], this compound registered an IC50 of 4.13 µM.

Turning to `Clc1nc(NCc2ccco2)c2c(-c3ccccc3)csc2n1` [Example 182, (2-Chloro-5-phenyl-thieno[2,3-d]pyrimidin-4-yl)-furan-2-ylmethyl-amine], the inhibition at 1 µM in test [1] is 75.8%. Moreover, in test [2], the IC50 worked out at 1.04 µM.

`c1ccc(-c2csc3nc(NCC4CC4)nc(NCc4ccccn4)c23)cc1` [Example 188, N^2-Cyclopropylmethyl-5-phenyl-N^4-pyridin-2-ylmethyl-thieno[2,3-d]pyrimidine-2,4-diamine] yielded an inhibition at 1 µM in test [1] of 98%. The compound also came in with an IC50 in test [2] of 2.52 µM.

`OCCNc1nc(NCc2ccccn2)c2c(-c3ccccc3)csc2n1` [Example 190, 2-{5-Phenyl-4-[(pyridin-2-ylmethyl)-amino]-thieno[2,3-d]pyrimidin-2-ylamino}-ethanol] returned an inhibition at 1 µM in test [1] of 97.1%. In test [2], the IC50 worked out at 0.26 µM.

As to `COc1nc(NCc2ccccn2)c2c(-c3ccccc3)csc2n1` [Example 191, (2-Methoxy-5-phenyl-thieno[2,3-d]pyrimidin-4-yl)-pyridin-2-ylmethyl-amine], at 1 µM the inhibition in test [1] was 91.8%. Besides, in test [2], it took 0.47 µM to reach half-maximal inhibition (IC50).

For `c1ccc(-c2csc3nc(NCc4ccco4)nc(NCc4ccco4)c23)cc1` [Example 193, N,N'-Bis(2-furylmethyl)-5-phenylthieno[2,3-d]pyrimidine-2,4-diamine], in test [1], the inhibition at 1 µM is 89.2%. Further, the IC50 in test [2] was found to be 2.5 µM.

On to `c1ccc(COc2nc(NCc3ccco3)c3c(-c4ccccc4)csc3n2)cc1` [Example 195, (2-Benzyloxy-5-phenyl-thieno[2,3-d]pyrimidin-4-yl)-furan-2-ylmethyl-amine], for which, in test [1], testing at 1 µM gave an inhibition of 90%. Moreover, the IC50 in test [2] stood at 6.39 µM.

Take `CNc1nc(NCc2ccccn2)c2c(-c3ccccc3)csc2n1` [Example 196, N^2-methyl-5-phenyl-N^4-(pyridin-2-ylmethyl)thieno[2,3-d]pyrimidine-2,4-diamine]: testing at 1 µM in test [1] gave an inhibition of 97%. Moreover, half-maximal inhibition in test [2] (IC50) required 0.04 µM.

Consider `c1ccc(-c2csc3nc(N4CCOCC4)nc(NCc4ccccn4)c23)cc1` [Example 197, (2-Morpholin-4-yl-5-phenyl-thieno[2,3-d]pyrimidin-4-yl)-pyridin-2-ylmethyl-amine], for which 1 µM produced 98% inhibition in test [1]. In addition, in test [2], the midpoint of inhibition, the IC50, lay at 0.15 µM.

Regarding `N#Cc1nc(NCc2ccccn2)c2c(-c3ccccc3)csc2n1` [Example 199, 5-Phenyl-4-[(pyridin-2-ylmethyl)-amino]-thieno[2,3-d]pyrimidine-2-carbonitrile], the inhibition at 1 µM in test [1] was 99.5%. Moreover, in test [2], the midpoint of inhibition, the IC50, lay at 6.61 µM.

Consider `CN(C)c1nc(NCc2ccccn2)c2c(-c3ccc(F)cc3)csc2n1` [Example 200, 5-(4-Fluorophenyl)-N^2,N^2-dimethyl-N^4-pyridin-2-ylmethyl-thieno[2,3-d]pyrimidine-2,4-diamine], for which the inhibition at 1 µM in test [1] stood at 99.3%. The compound further yielded an IC50 in test [2] of 71.8 µM.

Turning to `COC(=O)C1CCN(c2nc(NCc3ccccn3)c3c(-c4ccc(F)cc4)csc3n2)CC1` [Example 201, 1-{5-(4-Fluorophenyl)-4-[(pyridin-2-ylmethyl)-amino]-thieno[2,3-d]pyrimidin-2-yl}-piperidine-4-carboxylic acid methyl ester], in test [1], 1 µM produced 98.2% inhibition. The same compound gave an IC50 in test [2] of 15.9 µM.

As for `CCOC(=O)CCNc1nc(NCc2ccccn2)c2c(-c3ccccc3)csc2n1` [Example 202, 3-{5-Phenyl-4-[(pyridin-2-ylmethyl)-amino]-thieno[2,3-d]pyrimidin-2-ylamino}-propionic acid ethyl ester], the inhibition at 1 µM in test [1] amounted to 98%. The compound also registered an IC50 in test [2] of 2.7 µM.

In test [1], `COCCOc1nc(NCc2ccccn2)c2c(-c3ccccc3)csc2n1` [Example 203, [2-(2-Methoxy-ethoxy)-5-phenyl-thieno[2,3-d]pyrimidin-4-yl]-pyridin-2-ylmethyl-amine] returned an inhibition at 1 µM of 98%. The compound further gave an IC50 in test [2] of 0.48 µM.

In test [1], `CNc1nc(NCc2ccccn2)c2c(-c3ccc(F)cc3)csc2n1` [Example 204, 5-(4-Fluorophenyl)-N^2-methyl-N^4-pyridin-2-ylmethyl-thieno[2,3-d]pyrimidine-2,4-diamine] yielded an inhibition at 1 µM of 97.9%. In test [2], this compound had an IC50 of 4.7 µM.

In test [1], `Nc1nc(NCc2ccccn2)c2c(-c3ccc(F)cc3)csc2n1` [Example 205, 5-(4-Fluorophenyl)-N^4-pyridin-2-ylmethyl-thieno[2,3-d]pyrimidine-2,4-diamine] showed an inhibition at 1 µM of 97.5%. The midpoint of inhibition in test [2], the IC50, lay at 11.9 µM.

`OCCC1CCN(c2nc(NCc3ccccn3)c3c(-c4ccccc4)csc3n2)CC1` [Example 206, 2-(1-{5-Phenyl-4-[(pyridin-2-ylmethyl)-amino]-thieno[2,3-d]pyrimidin-2-yl}-piperidin-4-yl)-ethanol] displayed an inhibition at 1 µM in test [1] of 97.5%. The same compound showed an IC50 in test [2] of 3.41 µM.

`Fc1ccc(-c2csc3nc(N4CCOCC4)nc(NCc4ccccn4)c23)cc1` [Example 207, [5-(4-Fluorophenyl)-2-morpholin-4-yl-thieno[2,3-d]pyrimidin-4-yl]-pyridin-2-ylmethyl-amine]: testing at 1 µM in test [1] gave an inhibition of 97.2%. In addition, half-maximal inhibition in test [2] (IC50) required 42.5 µM.

For `OCCN(CCO)c1nc(NCc2ccccn2)c2c(-c3ccccc3)csc2n1` [Example 208, 2-((2-Hydroxy-ethyl)-{5-phenyl-4-[(pyridin-2-ylmethyl)-amino]-thieno[2,3-d]pyrimidin-2-yl}-amino)-ethanol], the inhibition at 1 µM in test [1] amounted to 96.6%. In test [2], this compound came in with an IC50 of 0.33 µM.

In test [1], `COCCNc1nc(NCc2ccccn2)c2c(-c3ccc(F)cc3)csc2n1` [Example 209, 5-(4-Fluorophenyl)-N^2-(2-methoxy-ethyl)-N^4-pyridin-2-ylmethyl-thieno[2,3-d]pyrimidine-2,4-diamine] had an inhibition at 1 µM of 96%. In addition, the IC50 in test [2] was found to be 1.83 µM.

Turning to `OCC(CO)Nc1nc(NCc2ccccn2)c2c(-c3ccccc3)csc2n1` [Example 210, 2-{5-Phenyl-4-[(pyridin-2-ylmethyl)-amino]-thieno[2,3-d]pyrimidin-2-ylamino}-propane-1,3-diol], in test [1], 1 µM produced 95.6% inhibition. The IC50 in test [2] was 0.74 µM.

`CN(C)CCOc1nc(NCc2ccccn2)c2c(-c3ccccc3)csc2n1` [Example 211, [2-(2-Dimethylamino-ethoxy)-5-phenyl-thieno[2,3-d]pyrimidin-4-yl]-pyridin-2-ylmethyl-amine] came in with an inhibition at 1 µM in test [1] of 89%. This compound also yielded an IC50 in test [2] of 5.37 µM.

In the case of `OCCNc1nc(NCc2ccccn2)c2c(-c3ccc(F)cc3)csc2n1` [Example 212, 2-{5-(4-Fluorophenyl)-4-[(pyridin-2-ylmethyl)-amino]-thieno[2,3-d]pyrimidin-2-ylamino}-ethanol], testing at 1 µM in test [1] gave an inhibition of 87%. The IC50 in test [2] came out at 7.63 µM.

`CCOC(=O)Cc1nc(NCc2ccccn2)c2c(-c3ccccc3)csc2n1` [Example 237, {5-Phenyl-4-[(pyridin-2-ylmethyl)amino]thieno[2,3-d]pyrimidin-2-yl} acetic acid ethyl ester] came in with an inhibition at 1 µM in test [1] of 95%. For the same compound, it took 0.54 µM to reach half-maximal inhibition in test [2] (IC50).

Regarding `CCOC(=O)Cc1nc(NCc2ccco2)c2c(-c3ccccc3)csc2n1` [Example 238, {4-[(Furan-2-ylmethyl)-amino]-5-phenyl-thieno[2,3-d]pyrimidin-2-yl}-acetic acid ethyl ester], in test [1], testing at 1 µM gave an inhibition of 96%. In test [2], this compound gave an IC50 of 3.33 µM.

Regarding `OCCc1nc(NCc2ccccn2)c2c(-c3ccccc3)csc2n1` [Example 250, 2-{5-Phenyl-4-[(pyridin-2-ylmethyl)amino]thieno[2,3-d]pyrimidin-2-yl}ethanol], in test [1], the inhibition at 1 µM amounted to 98%. Also, in test [2], half-maximal inhibition (IC50) was put at 0.33 µM.

As to `OCCc1nc(NCc2ccco2)c2c(-c3ccccc3)csc2n1` [Example 251, 2-{4-[(Furan-2-ylmethyl)-amino]-5-phenyl-thieno[2,3-d]pyrimidin-2-yl}-ethanol], 1 µM produced 98% inhibition in test [1]. This compound registered an IC50 in test [2] of 0.08 µM.

Consider `OCC(CO)c1nc(NCc2ccccn2)c2c(-c3ccccc3)csc2n1` [Example 275, 2-{5-Phenyl-4-[(pyridin-2-ylmethyl)-amino]-thieno[2,3-d]pyrimidin-2-yl}-propane-1,3-diol], for which, in test [1], the inhibition at 1 µM was found to be 93%. Further, in test [2], the IC50 stood at 1.53 µM.

Compound `FC(F)(F)c1ccc(-c2csc3ncnc(NCc4ccccn4)c23)cc1` [Example 313, Pyridin-2-ylmethyl-[5-(4-trifluoromethyl-phenyl)-thieno[2,3-d]pyrimidin-4-yl]-amine] gave an inhibition at 1 µM in test [1] of 98.3%. For the same compound, inhibition in test [2] was half-maximal at 2.9 µM (IC50).

In turn, `c1ccc(CNc2ncnc3scc(-c4ccc5c(c4)OCO5)c23)nc1` [Example 314, (5-Benzo[1,3]dioxol-5-yl-thieno[2,3-d]pyrimidin-4-yl)-pyridin-2-ylmethyl-amine] gave an inhibition at 1 µM in test [1] of 97.3%. Also, the 50% inhibitory concentration (IC50) in test [2] was determined as 0.01 µM.

In test [1], `c1ccc(CNc2ncnc3scc(-c4ccc5c(c4)OCCO5)c23)nc1` [Example 320, [5-(2,3-Dihydro-benzo[1,4]dioxin-6-yl)-thieno[2,3-d]pyrimidin-4-yl]-pyridin-2-ylmethyl-amine] had an inhibition at 1 µM of 97%. For the same compound, inhibition in test [2] was half-maximal at 0.37 µM (IC50).
